Patent US20070128217A1 (priority 2003, published 2007)

Key:
[1] = system: antibodies in sera from SARS patients (sera 1a, 1b, 2, 6, 37, 62, London, SARS-yellow, SARS-green); format: binding, human; set-up: Binding of serum 6 to linear peptides of protein X1 of SARS-CoV Urbani / Binding of serum 37 to linear peptides of protein X1 of SARS-CoV Urbani / Binding of serum 6 to looped/cyclic peptide (PEPSCAN-ELISA) / Binding of serum 37 to looped/cyclic peptide (PEPSCAN-ELISA) / Binding of serum 37 to looped/cyclic peptides of protein X1 of SARS-CoV Urbani / Binding of serum 6 to linear peptides of protein X2 / Binding of serum 37 to linear peptides of protein X2 / Binding of serum 37 to looped/cyclic peptides of protein X2 of SARS-CoV Urbani / Binding of serum 6 to linear peptides of protein M of SARS-CoV Urbani / Binding of serum 37 to linear peptides of protein M of SARS-CoV Urbani / Binding of serum 6 to looped/cyclic peptides of protein M of SARS-CoV Urbani / Binding of serum 37 to looped/cyclic peptides of protein M of SARS-CoV Urbani / Binding of serum 6 to linear peptides of protein X3 of SARS-CoV Urbani / Binding of serum 37 to linear peptides of protein X3 of SARS-CoV Urbani / Binding of serum 37 to looped/cyclic peptides of protein X3 of SARS-CoV Urbani / Binding of serum 6 to linear peptides of protein X4 of SARS-CoV Urbani / Binding of serum 37 to linear peptides of protein X4 of SARS-CoV Urbani / Binding of serum 37 to looped/cyclic peptides of protein X4 of SARS-CoV Urbani / Binding of serum 6 to linear peptides of protein X5 of SARS-CoV Urbani / Binding of serum 37 to linear peptides of protein X5 of SARS-CoV Urbani / Binding of serum 37 to looped/cyclic peptides of protein X5 of SARS-CoV Urbani / Binding of serum 6 to linear peptides of protein N of SARS-CoV Urbani / Binding of serum 37 to linear peptides of protein N of SARS-CoV Urbani / Binding of serum 6 to linear peptide (PEPSCAN-ELISA) / Binding of serum 1a to looped/cyclic peptides of protein N of SARS-CoV Urbani / Binding of serum 1b to looped/cyclic peptides of protein N of SARS-CoV Urbani / Binding of serum 2 to looped/cyclic peptides of protein N of SARS-CoV Urbani / Binding of serum 6 to looped/cyclic peptides of protein N of SARS-CoV Urbani / Binding of serum 37 to looped/cyclic peptides of protein N of SARS-CoV Urbani / Binding of serum 62 to looped/cyclic peptides of protein N of SARS-CoV Urbani / Binding of serum London to looped/cyclic peptides of protein N of SARS-CoV Urbani / Binding of serum SARS-green to looped/cyclic peptides of protein N of SARS-CoV Urbani: unit not given here
[2] = system: rabbit serum obtained by immunizing a rabbit with the SARS-CoV strain Frankfurt 1; format: binding; set-up: Binding of a rabbit serum to linear peptides / Binding of a rabbit serum to looped peptides / Rabbit serum linear peptides / Rabbit serum looped peptides / Binding of a rabbit serum to linear peptides of protein N of SARS-CoV Urbani (Rabbit serum linear peptides) / Binding of a rabbit serum to looped/cyclic peptides of protein N of SARS-CoV Urbani (Rabbit serum looped peptides): unit not given here
[3] = system: control sera (pooled serum of ten healthy LUMC hospital workers; commercial negative donor pooled serum from the Dutch bloodbank); format: binding, human; set-up: Binding of Control serum LUMC to linear peptides / Binding of Control serum Blood-bank to linear peptides / Binding of Control serum LUMC to looped peptides / Binding of Control Serum Blood-Bank to Looped peptides / Binding of Control serum LUMC to linear peptides of the protein M of SARS-CoV Urbani / Binding of Control serum Blood-bank to linear peptides of the protein M of SARS-CoV Urbani / Binding of Control serum LUMC to looped peptides of the protein M of SARS-CoV Urbani / Binding of Control Serum Blood-Bank to Looped peptides of the protein M of SARS-CoV Urbani: unit not given here

Sequence | Recognition of the peptide by sera of SARS-CoV infected individuals, and form (linear, looped/cyclic) in which it is recognized [1] | Rabbit serum linear peptides [2] | Rabbit serum looped peptides [2] | Binding of Control Serum Blood-Bank to Looped peptides [3] | Binding of Control serum Blood-bank to linear peptides [3] | Binding of Control serum LUMC to linear peptides [3] | Binding of Control serum LUMC to looped peptides [3] | Binding of serum 1a to linear peptides of protein M of SARS-CoV Urbani [1] | Binding of serum 1a to looped/cyclic peptides of protein M of SARS-CoV Urbani [1] | Binding of serum 1b to linear peptides of protein M of SARS-CoV Urbani [1] | Binding of serum 1b to looped/cyclic peptides of protein M of SARS-CoV Urbani [1] | Binding of serum 2 to linear peptides of protein M of SARS-CoV Urbani [1] | Binding of serum 2 to looped/cyclic peptides of protein M of SARS-CoV Urbani [1] | Binding of serum 6 to linear peptides of protein M of SARS-CoV Urbani [1] | Binding of serum 6 to looped/cyclic peptides of protein M of SARS-CoV Urbani [1] | Binding of serum 37 to linear peptides of protein M of SARS-CoV Urbani [1] | Binding of serum 37 to looped/cyclic peptides of protein M of SARS-CoV Urbani [1] | Binding of serum 62 to linear peptides of protein M of SARS-CoV Urbani [1] | Binding of serum 62 to looped/cyclic peptides of protein M of SARS-CoV Urbani [1] | Binding of serum London to linear peptides of protein M of SARS-CoV Urbani [1] | further results
RQEEVQQELYSPLFL | recognized in looped/cyclic form | 0.5 | 0.6 | 0.8 | 0.7 | 0.6 | 0.9 |  |  |  |  |  |  |  |  |  |  |  |  |  | Binding of serum 1a to linear peptides of protein X4 of SARS-CoV Urbani [1]: 0.8; Binding of serum 1b to linear peptides of protein X4 of SARS-CoV Urbani [1]: 0.6; Binding of serum 2 to linear peptides of protein X4 of SARS-CoV Urbani [1]: 0.5; Binding of serum 6 to linear peptides of protein X4 of SARS-CoV Urbani [1]: 0.5; Binding of serum 37 to linear peptides of protein X4 of SARS-CoV Urbani [1]: 0.8; Binding of serum 62 to linear peptides of protein X4 of SARS-CoV Urbani [1]: 0.8; Binding of serum London to linear peptides of protein X4 of SARS-CoV Urbani [1]: 0.7; Binding of serum SARS-green to linear peptides of protein X4 of SARS-CoV Urbani [1]: 0.7; Binding of serum SARS-yellow to linear peptides of protein X4 of SARS-CoV Urbani [1]: 0.7
RRLLACLCKHKKVST | recognized in linear form |  |  | 0.2 | 0.9 | 0.7 | 0.3 |  |  |  |  |  |  |  |  |  |  |  |  |  | Binding of serum 1a to looped/cyclic peptides of protein X2 of SARS-CoV Urbani [1]: 0.2; Binding of serum 1b to looped/cyclic peptides of protein X2 of SARS-CoV Urbani [1]: 0.1; Binding of serum 2 to looped/cyclic peptides of protein X2 of SARS-CoV Urbani [1]: 0.1; Binding of serum 6 to looped/cyclic peptides of protein X2 of SARS-CoV Urbani [1]: 0.2; Binding of serum 37 to looped/cyclic peptides of protein X2 of SARS-CoV Urbani [1]: 0.2; Binding of serum 62 to looped/cyclic peptides of protein X2 of SARS-CoV Urbani [1]: 0.4; Binding of serum London to looped/cyclic peptides of protein X2 of SARS-CoV Urbani [1]: 0.2; Binding of serum SARS-green to looped/cyclic peptides of protein X2 of SARS-CoV Urbani [1]: 0.2; Binding of serum SARS-yellow to looped/cyclic peptides of protein X2 of SARS-CoV Urbani [1]: 0.2; Binding of a rabbit serum to linear peptides [2]: 0.6; Binding of a rabbit serum to looped peptides [2]: 0.3
RRRLLACLCKHKKVS | recognized in linear form |  |  | 0.3 | 0.7 | 0.6 | 0.2 |  |  |  |  |  |  |  |  |  |  |  |  |  | Binding of serum 1a to looped/cyclic peptides of protein X2 of SARS-CoV Urbani [1]: 0.2; Binding of serum 1b to looped/cyclic peptides of protein X2 of SARS-CoV Urbani [1]: 0.1; Binding of serum 2 to looped/cyclic peptides of protein X2 of SARS-CoV Urbani [1]: 0.0; Binding of serum 6 to looped/cyclic peptides of protein X2 of SARS-CoV Urbani [1]: 0.1; Binding of serum 37 to looped/cyclic peptides of protein X2 of SARS-CoV Urbani [1]: 0.2; Binding of serum 62 to looped/cyclic peptides of protein X2 of SARS-CoV Urbani [1]: 0.3; Binding of serum London to looped/cyclic peptides of protein X2 of SARS-CoV Urbani [1]: 0.1; Binding of serum SARS-green to looped/cyclic peptides of protein X2 of SARS-CoV Urbani [1]: 0.1; Binding of serum SARS-yellow to looped/cyclic peptides of protein X2 of SARS-CoV Urbani [1]: 0.1; Binding of a rabbit serum to linear peptides [2]: 0.5; Binding of a rabbit serum to looped peptides [2]: 0.2
RYRIGNYKLNTDHAG |  | 0.1 | 0.2 |  |  |  |  | 0.7 | 0.7 | 0.5 | 0.6 | 0.4 | 0.6 | 0.2 | 0.9 | 0.6 | 0.6 | 0.5 | 0.6 | 0.5 | Binding of serum London to looped/cyclic peptides of protein M of SARS-CoV Urbani [1]: 0.4; Binding of serum SARS-green to linear peptides of protein M of SARS-CoV Urbani [1]: 0.4; Binding of serum SARS-green to looped/cyclic peptides of protein M of SARS-CoV Urbani [1]: 0.3; Binding of serum SARS-yellow to linear peptides of protein M of SARS-CoV Urbani [1]: 0.2; Binding of serum SARS-yellow to looped/cyclic peptides of protein M of SARS-CoV Urbani [1]: 0.8; Binding of Control Serum Blood-Bank to Looped peptides of the protein M of SARS-CoV Urbani [3]: 0.7; Binding of Control serum Blood-bank to linear peptides of the protein M of SARS-CoV Urbani [3]: 0.7; Binding of Control serum LUMC to linear peptides of the protein M of SARS-CoV Urbani [3]: 0.5; Binding of Control serum LUMC to looped peptides of the protein M of SARS-CoV Urbani [3]: 0.7
SELVIGAVIIRGHLR |  | 0.2 | 0.2 |  |  |  |  | 0.7 | 0.8 | 0.6 | 0.7 | 0.6 | 0.8 | 0.7 | 0.6 | 0.5 | 0.8 | 0.4 | 0.8 | 0.4 | Binding of serum London to looped/cyclic peptides of protein M of SARS-CoV Urbani [1]: 0.2; Binding of serum SARS-green to linear peptides of protein M of SARS-CoV Urbani [1]: 0.5; Binding of serum SARS-green to looped/cyclic peptides of protein M of SARS-CoV Urbani [1]: 0.3; Binding of serum SARS-yellow to linear peptides of protein M of SARS-CoV Urbani [1]: 0.3; Binding of serum SARS-yellow to looped/cyclic peptides of protein M of SARS-CoV Urbani [1]: 0.9; Binding of Control Serum Blood-Bank to Looped peptides of the protein M of SARS-CoV Urbani [3]: 0.6; Binding of Control serum Blood-bank to linear peptides of the protein M of SARS-CoV Urbani [3]: 0.8; Binding of Control serum LUMC to linear peptides of the protein M of SARS-CoV Urbani [3]: 0.9; Binding of Control serum LUMC to looped peptides of the protein M of SARS-CoV Urbani [3]: 0.6
SFNPETNILLNVPLR |  | 0.5 | 0.4 |  |  |  |  | 0.7 | 0.8 | 0.4 | 0.7 | 0.5 | 0.9 | 0.3 | 0.8 | 0.7 | 0.7 | 0.7 | 0.8 | 0.3 | Binding of serum London to looped/cyclic peptides of protein M of SARS-CoV Urbani [1]: 0.3; Binding of serum SARS-green to linear peptides of protein M of SARS-CoV Urbani [1]: 0.3; Binding of serum SARS-green to looped/cyclic peptides of protein M of SARS-CoV Urbani [1]: 0.3; Binding of serum SARS-yellow to linear peptides of protein M of SARS-CoV Urbani [1]: 0.1; Binding of serum SARS-yellow to looped/cyclic peptides of protein M of SARS-CoV Urbani [1]: 1.0; Binding of Control Serum Blood-Bank to Looped peptides of the protein M of SARS-CoV Urbani [3]: 1.0; Binding of Control serum Blood-bank to linear peptides of the protein M of SARS-CoV Urbani [3]: 0.7; Binding of Control serum LUMC to linear peptides of the protein M of SARS-CoV Urbani [3]: 0.4; Binding of Control serum LUMC to looped peptides of the protein M of SARS-CoV Urbani [3]: 1.0
